# Measurements as given in patent US20140235500A1, “HIGH THROUGHPUT INSTRUMENTATION TO SCREEN CELLS AND PARTICLES BASED ON THEIR MECHANICAL PROPERTIES” (The Regents of the University of California, priority 2011, published 2014).
# Key:
# [1] = tested on: HL60 cells; test: High throughput mechanical screening (HTMS): cell passage through porous membrane under applied pressure; format: cell-based, human; settings: for cell deformability: FIG. 27
# Description: An initial prototype device (see, e.g., FIGS. 9-16) was machined out of polymethylmethacrylate (McMaster Carr) in the format of a 96-well plate containing: a porous membrane sandwiched between a bottom, multiwell collection plate, and a top loading plate. A pressure chamber seals the device and interfaces with a compressed air tank (see, e.g., FIG. 17).
# In the initial prototype device, we use track-etched, polycarbonate membranes with 5 μm pore size (Millipore). To minimize adhesion, surface treatment with 10 mg/mL bovine serum albumin was performed prior to the experiment. To load the device, cells were deposited on top of the porous membrane in each individual well. The optimal loading density of cells was established iteratively with detection: a loading density of ˜10^6 cells/mL was optimal given the estimated lower detection limit of 10^2 cells/mL using a flow cytometer.
# Once the device was loaded, the pressure chamber lid was placed on top to create a pressure-tight seal, and tubing was connected to a tank of compressed air with 5% CO2 that was outfitted with a pressure gauge (0-30 psi, 0.2 psi resolution, Airgas). An electro-pneumatic regulator (0-20 psi output, Omega) enabled precise control of the magnitude and duration of applied pressure for sub-second periods of time via control through LabVIEW. Pressures between 5-10 psi were estimated to generate ˜kPa-scale stresses required to deform cells with elastic moduli in the kPa range.
# After applying pressure to induce deformation of cells through the pores, the number of passaged cells was counted. We used a flow cytometer to count cells in the individual wells of a 96-well plate using scattered light (forward versus side scatter) as a signal (LSRII flow cytometer, BD Biosciences). An entire 96-well plate was counted within 15 minutes.
# (§1) As shown in FIG. 27 the effect of various anti-cancer drugs (e.g., cytochalisin D, paclitaxel, daunorubicin, colchicine) can readily be detected using the HTMS systems described herein. […] Without being bound by a particular theory, it is believed that that the changes in mechanical properties are produced by the action of the drugs on cytoskeletal elements (e.g., actin filaments). Similarly, as shown in FIG. 28 the HTMS measurements made herein can be used to detect dose-response effects of various agents (e.g., anti-cancer drugs) on cells. In this experiment, HL60 cells were treated with 10.0 μM colchicine. Without being bound by a particular theory it is believed that colchicine perturbs microtubules at low concentrations and stabilizes F-actin at high concentrations.
# [2] = tested on: OVCAR5 cells; test: HTMS measurement of drug treatment on ovarian cancer cells; format: cell-based; settings: OVCAR5-CIS+ cells treated for <1 day; 0.4 psi for 35 s; FIG. 32
# Description: FIG. 32 illustrates the use of HTMS measurements to detect the effects of drug treatment on cancer cells. Data: 0.4 psi for 35 s.
# In addition, the HTMS systems described herein can be used to monitor the progression of drug treatments. Ovarian cancer cells: SKOV3 and OVCAR5 are cisplatin sensitive, while SKOV3-CISR and OVCAR5-CISR are cisplatin resistant.
# [3] = tested on: adherent murine mammary carcinoma cells (67NR); test: HTMS measurement on adherent carcinoma cells; format: cell-based; settings: 67NR cells; FIG. 29
# Description: FIG. 29 illustrates the effect of various drugs on adherent murine mammary carcinoma cells (67NR).
# as §1
# [4] = tested on: human promyelocytic leukemia (HL60) cells; test: Flow of cells through constricted microfluidic channels (deformation time); format: cell-based; settings: HL60 cells treated with drug to perturb actin network; narrow constrictions
# Description: To dissect the contributions of nuclear physical properties to whole cell deformability, human promyelocytic leukemia (HL60) cells provide a convenient model system. These cells can be readily differentiated into neutrophil-type cells in vitro. During this process of granulopoiesis, the cell nucleus undergoes major changes in morphology as it transitions from an ovoid to an irregular, multi-lobed structure.
# In addition to these induced changes in nuclear morphology, cytoskeletal protein expression is also altered. Levels of actin increase during differentiation, and cortical actin is implicated in the resistance of these cells to out-of-plane deformations. To determine the contributions of actin to cellular deformation, cells were treated with a drug (cytochalasin B) to perturb their actin network. […] One determinant of nucleus shape stability is the intermediate filament type protein, lamin A. This protein is a major constituent of the meshwork underlying the nuclear envelope, and its expression levels are directly linked to nuclear mechanical properties.
structure (smiles),measurement,setting,value
CC1=C(/C=C/C(C)=C/C=C/C(C)=C/C(=O)O)C(C)(C)CCC1 [ATRA],pressure dependence of cell passage versus HL60 cells,"[1]; neutrophil-type (ATRA-treated) cells, FIG. 25",different pressure dependence
N.N.[Cl][Pt][Cl] [cisplatin],difference in HTMS measurement compared with OVCAR5 cells,[2],no apparent difference
COc1cc2c(c(OC)c1OC)-c1ccc(OC)c(=O)cc1[C@@H](NC(C)=O)CC2 [colchicine],cell deformability,"[1]; HL60 cells, 10.0 μM",decrease the deformability
same,cell stiffness (dose response),"[1]; HL60 cells, low drug concentration, FIG. 28",increased cell stiffness
same,dose response effects on cell mechanical properties,[3],Dose response effects of colchicine are also observed
C=C1[C@@H](C)[C@H]2[C@H](Cc3ccccc3)NC(=O)[C@]23OC(=O)/C=C/[C@H](O)CCC[C@@H](C)C/C=C/[C@H]3[C@@H]1O [cytochalasin B],difference in cellular deformation between treated and non-treated controls,[4],no detectable difference
C=C1[C@@H](C)[C@H]2[C@H](Cc3ccccc3)NC(=O)[C@]23[C@H](OC(C)=O)/C=C/[C@@](C)(O)C(=O)[C@@H](C)C/C=C/[C@H]3[C@@H]1O [cytochalasin D],cell deformability,"[1]; HL60 cells, 2.0 μM",increase cell deformability
COc1cccc2c1C(=O)c1c(O)c3c(c(O)c1C2=O)C[C@@](O)(C(C)=O)C[C@@H]3O[C@H]1C[C@H](N)[C@H](O)[C@H](C)O1 [dauorubicin],cell deformability,"[1]; HL60 cells, 1.0 μM",decrease the deformability
CC(=O)O[C@H]1C(=O)[C@@]2(C)[C@H]([C@H](OC(=O)c3ccccc3)[C@]3(O)C[C@H](OC(=O)[C@H](O)[C@@H](NC(=O)c4ccccc4)c4ccccc4)C(C)=C1C3(C)C)[C@]1(OC(C)=O)CO[C@@H]1C[C@@H]2O [paclitaxel],cell deformability,"[1]; HL60 cells, 1.5 μM",increase cell deformability
